{"source": "patent US6590123B2", "about": "“Aminobenzoic acid derivatives having anti-tumorigenic activity, methods of making and using the same” (Mount Sinai School of Medicine of New York University, priority 1998, dated 2003)", "key": {"B16 mouse melanoma": {"system": "B16 mouse melanoma", "assay": "Block of mitosis, morphology by microscopy", "format": "cell-based", "parameters": "key to Block of Mitosis: +Block of mitosis was observed; −no mitotic blocking", "description": "(§1) All cell lines, with the exception of human SP cells, a biphenotypic leukemic cell line (reference 10 & 11), were obtained from the American Tissue Culture Collection (Rockville, Md.) and were cultured under conditions recommended by the vendor. EL4 murine leukemia lymphoma (as suspension) and B16 mouse melanoma (as monolayer) cell lines were cultivated in RPMI-1640 medium supplemented with 10% fetal bovine serum (FBS), penicillin (250 μ/ml) and streptomycin (250 μml); MOT, a non-tumor proliferative myocardial cell line from rat and NIH 3T3, a non-malignant and proliferative fibroblast cell line from mouse were both cultured as monolayers in Dulbecco's Modified Eagle's Medium with 10% heat inactivated calf serum. CEM, a human acute T-cell leukemic cell line, was cultured as a suspension in Iscove's Dulbecco's Medium with 10% heat inactivated fetal calf serum and antibiotics. PC-3 cells, a human prostate cancer line, was cultured as monolayers in RPMI-1640 with 10% FBS. SP cells were cultured in Minimum Eagle's Medium plus 10% FBS. Human peripheral blood lymphocytes (PBL) were isolated from whole blood of healthy individuals by Ficoll-Hypaque gradient method. Isolated PBL were maintained in RPMI-1640 in the presence of 10% homologous plasma at 37° C. All cells were incubated at 37° C. in 5% C02. Cells in exponential growth were used.\n(§2) Cell samples on slides were prepared by a Cytospin centrifuge (Shandon Southern Products Ltd, England) at 700 g for 5 min. The slides were air dried, fixed in methanol and stained with Giemsa (Harleco, N.J.) at room temperature for 15 min. Alterations of nuclei, membranes and morphological features were observed by light microscopy. Cells in mitotic phase were recognized by the appearance of their chromosomes dispersed in the cytoplasm, and by the disappearance of nuclear membrane. Apoptotic-cells were identified using previously defined criteria, i.e., shrinkage in cell size, chromatin condensation and fragmentation of the nucleus into discrete masses (references 2 & 3). Necrotic cells were differentiated from apoptotic cells by observing swollen cytoplasm and the disappearance of cell membrane prior to the destruction of the nucleus."}, "[1]": {"system": "Human peripheral blood lymphocytes (PBL)", "assay": "Block of mitosis, morphology by microscopy", "format": "cell-based", "parameters": "key to Block of Mitosis: +Block of mitosis was observed; −no mitotic blocking", "description": "as §1, §2"}, "[2]": {"system": "mitotic spindles (β-tubulin) in CEM cells", "assay": "Immunofluorescent detection of mitotic spindles", "format": "cell-based, human", "conditions": "for Antimicrotubule: CEM cells, 0.025 μg/ml, immunofluorescent staining", "description": "[…] After incubation, cells were washed twice in PBS. Cell pellets were resuspended in drug-free medium and incubated for 48 hr at 37° C. Cell viability, morphology, mitotic spindles, cell cycle distribution and apoptosis were determined 24 hr and 48 hr post pulse exposure.\nCEM cells incubated in the absence or presence of 3-BAABU were collected and centrifuged in a Cytospin at 700 g for 5 min. The slides were air dried and fixed with methanol for 20 min at −20° C. The slides were incubated in PBS containing. 1% BSA at 37° C. for 30 min. After washing with PBS for 3 min, cells on the slides were covered with 30 μl anti-human β-tubulin monoclonal antibody (4 μg/ml) (Accurate Antibody, Westbury, N.Y.) and placed in a humid chamber at room temperature for 60 min. The slides were washed three times for 3 min each in PBS followed by staining with 10 μl FITC labeled goat anti-mouse antibody (Coulter, Hialeah, Fla.) in a humid chamber at room temperature for 60 min. After washing in, PBS, the immunofluorescent stained cells were visualized under a fluorescence microscope (Model MC 63, Zeiss, Germany)."}, "L1210 Leukemia": {"system": "L1210 Leukemia", "assay": "Survival of mice implanted i.p. with L1210 Leukemia", "format": "in vivo", "excerpt": "Both control and treated animals were examined for ascitic tumor burden daily for 35 days."}, "[3]": {"system": "repolymerized microtubules", "assay": "Inhibition of microtubule disassembly by spectrophotometry, cell free system", "format": "biochemical, calf", "conditions": "20 μg/ml (66 μM)", "description": "Purified tubulin was purchased from Sigma (St. Louis, Mo.). The effects of compounds 6, 7, 8, 9, paclitaxel and vinblastine on the microtubule assembly-disassembly process were determined using conditions recommended by the vendor. For assembly inhibition, 100 μl tubulin solution (500-600 μg protein/ml) was mixed gently with 400 μl reaction buffer containing 0.1 M MES (2-[N-morpholino]ethane sulfonic acid), 1 mM EGTA ([…]-N,N,N′,N′-tetraacetic acid), 0.5 mM MgCl2, 0.1 mM EDTA and 2.5 M gycerol at 37° C. Compounds 6, 7, 8, and 9 were next added to each sample at final concentrations of 10, 10, 1 and 1 μg/ml, respectively. After adding GTP to each sample to a final concentration of 1 mM, the microtubule assembly process was monitored by measuring the change of absorbance (OD) at 350 nm on a spectrophotometer (Ultrospec III, Pharmacia LKB, Uppsala, Sweden). […] Changes of absorbance (OD) were monitored at 350 nm for 30 min until the OD values in the controls returned to the starting level, i.e., when the assembly-disassembly cycle was completed.\nPurified tubulin from calf brain was purchased from Sigma (St. Louis, Mo.). The effects of 3-BAABU (3-bromoacetoamido, benzoylurea) on the microtubule assembly-disassembly process were determined using the conditions recommended by the vendor. […]"}, "MOT myocardial cell line": {"system": "MOT myocardial cell line", "assay": "Block of mitosis, morphology by microscopy", "format": "cell-based, rat", "parameters": "key to Block of Mitosis: +Block of mitosis was observed; −no mitotic blocking", "description": "as §1, with “used. […]” for “used.”"}}}
{"molecule": "NC(=O)NC(=O)c1cccc(NC(=O)CBr)c1", "note": "[Compound 8, 3-Bromoacetoamido, benzoylurea]", "values": [{"measurement": "Block of Mitosis", "setting": "B16 mouse melanoma; B16, Murine melanoma, 37° C. for 48 hr", "value": "+"}, {"measurement": "morphologic effect", "setting": "B16 mouse melanoma; murine melanoma cells, 0.25 μg/ml, 24 hr at 37° C.", "value": "induced mitotic arrest"}, {"measurement": "Block of Mitosis", "setting": "[1]; Normal human PBL (non-tumor), 37° C. for 48 hr", "value": "−"}, {"measurement": "morphologic effect", "setting": "[1]; normal human lymphocytes, 2 μg/ml, 24 hr at 37° C.", "value": "no effect"}, {"measurement": "Antimicrotubule", "setting": "[2]; Continuous Exposure (24 hr; 48 hr in footnote)", "value": "++++ (++++: >75% cells were affected)"}, {"measurement": "Antimicrotubule", "setting": "[2]; Pulse Exposure (1 hr)", "value": "++++ (++++: >75% cells were affected)"}, {"measurement": "formation of mitotic spindles, immunofluorescent staining for β-tubulin", "setting": "[2]; mitotic CEM cells arrested by the compound", "value": "none of them showed positive staining for mitotic spindles or astral microtubules"}, {"measurement": "Survival IL %", "setting": "L1210 Leukemia; 20 mg/kg ip on days 2 & 8", "value": 44, "unit": "%"}, {"measurement": "Survival Mean ± SD", "setting": "L1210 Leukemia; 20 mg/kg ip on days 2 & 8, control 16.5 ± 1.4", "value": "23.7 ± 4.4"}, {"measurement": "effect on microtubular depolymerization", "setting": "[3]", "value": "not influenced"}, {"measurement": "Block of Mitosis", "setting": "MOT myocardial cell line; MOT, Rat myocardiac cells (non-tumor), 37° C. for 48 hr", "value": "−"}, {"measurement": "morphologic effect", "setting": "MOT myocardial cell line; rat myocardial cells, 1.0 μg/ml, 24 hr at 37° C.", "value": "no effect"}]}
